Assay results published in US20140171438A1, “Hybrid Compounds And Methods Of Making And Using The Same” (CELLCEUTIX CORPORATION, priority 2012, published 2014).
In brackets after ≈: the same amount, converted by molar mass.

Columns and labels:
[1] = Cytotoxicity, colorimetric tetrazolium assay; assay type: cell-based; settings: one hour with compound in serum-free media
Protocol: Cytotoxicity of the compounds was evaluated in a colorimetric assay using a transformed human liver cell line (HepG2, HB-8065) and an embryonic mouse cell line (NIH/3T3 cells, CRL-1658). This assay measures the bioreduction of a novel tetrazolium compound to a soluble formazan product by viable cells. HepG2 cells were seeded in 96 well plates at 2×10^4 cells/well in MEM medium with 10% fetal bovine serum (FBS) for 24 hours prior to use. NIH/3T3 cells were seeded in 96 well plates at 2×10^4 cells/well in DMEM medium with 10% bovine calf serum (BCS) 24 hours prior to use. Cell monolayers were rinsed in serum-free media and incubated for one hour with the compound in serum-free media. After incubation, the media was replaced with serum supplemented media and live cells were measured using the Cell Titer 96 Aqueous […] (Promega, Madison, Wis.). EC50 values were determined using a four parameter logistic equation: Y=Bottom+(Top−Bottom)/(1+10̂((Log EC50−X)*HillSlope)). Actual results from a representative cytotoxicity assay are shown below in Table 2. Data is expressed as EC50 in μg/mL.

[2] = test system: Staphylococcus aureus ATCC 27660; assay: Antimicrobial activity, MIC, modified microbroth dilution; assay type: cell-based; settings: ATCC27660, S. aureus (27660), 18 hours incubation, read-out: MIC (expressed as MIC50) S. aureus
Protocol: (§1) The compounds were screened for antimicrobial activity against a number of ATCC bacterial strains. Minimum Inhibitory Concentrations (MIC) of each of the compounds were determined using standard CLSI procedures modified by Hancock protocol against E. Coli ATCC 25922, Staphylococcus aureus ATCC 27660, Enterococcus faecalis ATCC 29212, Pseudomonas aeruginosa ATCC 10145, and Klebsiella pneumoniae ATCC 13883.
(§2) This procedure is a modification of the standard microbroth dilution assay recommended by the National Committee for Clinical Laboratory Standards (NCCLS) which has been developed for determining in vitro antimicrobial activities of cationic agents (Steinberg et al., Antimicrob. Agents Chemother., 1997, 41, 1738; and Yan et al., Antimicrob. Agents Chemother., 2001, 45, 1558). The modifications were made to minimize loss of the antimicrobial agent due to adsorption onto glass or plastic surfaces and by precipitation at high concentrations.
(§3) Three mL of Mueller-Hinton II Broth (cation-adjusted) was inoculated with 5 μL of frozen bacterial stock and incubated at 37° C. on a shaker platform (at 250 rpm) overnight. Compound stock solutions were prepared in DMSO and serial two-fold dilutions of compound were made in 0.01% acetic acid, 0.2% bovine serum albumin directly in the wells of the polypropylene plate at 10 μL/well. […] All samples were performed in duplicate. The overnight bacteria suspension was diluted to approximately 10^6 cfu/mL and inoculated into a polypropylene (Costar) 96-well round bottom plate (90 μL volumes). One set of control wells included broth-only samples with dilution buffer for testing sterility and providing blank values for the assay readings. Vehicle-control wells containing the bacterial suspension with DMSO (no compound) were also included. Following the overnight incubation (18 hours), cell growth was assessed by observing the presence of “acceptable growth”, defined by NCCLS as a ≧2 mm button or definite turbidity.
(§4) Actual results from a representative MIC assay are shown below in Table 1. Data is expressed as MIC50 in μg/mL. The bacterial isolates were as follows: E. coli (25922); S. aureus (27660); E. faecalis (29212); P. aeruginosa (10145); and K. pneumoniae (13883).

[3] = test system: Enterococcus faecalis ATCC 29212; assay: as above; assay type: cell-based; settings: ATCC29212, E. faecalis (29212), 18 hours incubation, read-out: MIC (expressed as MIC50) E. faecalis
Protocol: as §1, §2, §3, §4

E. Coli ATCC 25922 = assay: as above; assay type: cell-based; settings: Escherichia coli, ATCC25922; E. coli (25922); 18 hours incubation; read-out: MIC (expressed as MIC50) E. coli
Protocol: as §1, §2, §3, §4

[4] = test system: Pseudomonas aeruginosa ATCC 10145; assay: as above; assay type: cell-based; settings: ATCC10145, P. aeruginosa (10145), 18 hours incubation, read-out: MIC (expressed as MIC50) P. Aeruginosa
Protocol: as §1, §2, §3, §4

[5] = test system: Klebsiella pneumoniae ATCC 13883; assay: as above; assay type: cell-based; settings: ATCC13883, K. pneumoniae (13883), 18 hours incubation, read-out: MIC (expressed as MIC50) K. Pnuemnoiae
Protocol: as §1, §2, §3, §4

MRSA ATCC 33591 = assay: Anti-biofilm activity, minimum biofilm eradication concentration (MBEC); assay type: cell-based, Staphylococcus aureus; settings: MRSA ATCC 33591 biofilm on filter paper disks; 24 hours challenge
Protocol: The in vitro activity against biofilm was carried out by following the protocol for biofilm development and challenge using filter paper disks and 24-well plates. On day one, a tryptic soy agar plate (TSA) was streaked for MRSA isolation. On the second day a single colony of MRSA was grown in about 5 mL of tryptic soy broth (TSB). Filter papers were punched and autoclaved in 96-well plate. On the third day, a single filter paper disk was placed in each well of 24-well plate. The plate was inoculated with 300 μL/well of 0.01 adjusted OD600 bacteria inoculum in TSB supplemented with 1% glucose and 1.6% NaCl. The cells were allowed to grow for 48 hours on a shaker at 37° C. On day five, the challenge plate(s) were made in a 24-well plate(s), using eppendorf tubes to make dilutions and aliquoted into designated wells. The wash plates were filled in each well of a 24-well plate with 500 μL 0.9% saline. The disks were removed with forceps from the growth plate to the wash plate to challenge plate, flaming in between or where needed. Once disks are in challenge plate, incubated for 24 hours on shaker at 37° C. […] On day seven, the colonies were counted.
The actual MBEC of Compound 113 against MRSA ATCC 33591 was determined to be 32 μg/mL.

[6] = mouse, NIH/3T3 cells (CRL-1658)

Row | Structure (SMILES) | EC50 at 1 h ([1]; human, HepG2 cells (HB-8065)) [µg/mL] | EC50 at 1 h [1, 6] [µg/mL] | MIC50 [2] [µg/mL] | MIC50 [3] [µg/mL] | MIC50 (E. Coli ATCC 25922) [µg/mL] | MIC50 [4] [µg/mL] | MIC50 [5] [µg/mL] | MBEC (MRSA ATCC 33591) [µg/mL] | MIC [2] [µg/mL] | MIC [3] [µg/mL] | MIC (E. Coli ATCC 25922) [µg/mL] | MIC [4] [µg/mL] | MIC [5] [µg/mL]
1 | N=C(N)NCCCC(=O)Nc1cc(C(F)(F)F)cc(NC(=O)Nc2ccc3nc(-c4ccc(NCCCN)cc4)sc3c2)c1SCCN [Compound 110, N-[2-(2-aminoethylsulfanyl)-3-[[2-[4-(3-aminopropylamino)phenyl]-1,3-benzothiazol-6-yl]carbamoylamino]-5-(trifluoromethyl)phenyl]-4-guanidino-butanamide] | 49.9 (≈ 71 µM) | 50.7 (≈ 72.1 µM) | 0.098 (≈ 0.139 µM) | 1.56 (≈ 2.22 µM) | 1.56 (≈ 2.22 µM) | 6.25 (≈ 8.89 µM) | 3.13 (≈ 4.45 µM) |  |  |  |  |  | 
2 | N=C(N)NCCCCC(=O)Nc1cc(C(F)(F)F)cc(NC(=O)Nc2ccc3nc(NC(=O)Nc4cc(C(F)(F)F)cc(NC(=O)CCCCNC(=N)N)c4SCCN)sc3c2)c1SCCN [Compound 111, N-[2-(2-aminoethylsulfanyl)-3-[[2-[[2-(2-aminoethylsulfanyl)-3-(5-guanidinopentanoylamino)-5-(trifluoromethyl)phenyl]carbamoylamino]-1,3-benzothiazol-6-yl]carbamoylamino]-5-(trifluoromethyl)phenyl]-5-guanidino-pentanamide] | 54 (≈ 53.9 µM) | 50.1 (≈ 50 µM) | 0.195 (≈ 0.195 µM) | 3.13 (≈ 3.12 µM) | 3.13 (≈ 3.12 µM) | 12.5 (≈ 12.5 µM) | 3.13 (≈ 3.12 µM) |  |  |  |  |  | 
3 | N=C(N)NCCCCC(=O)Nc1cc(C(F)(F)F)cc(NC(=O)Nc2ccc3nc(NC(=O)Nc4cc(C(F)(F)F)cc(NC(=O)CCCCNC(=N)N)c4O[C@@H]4CCNC4)sc3c2)c1O[C@@H]1CCNC1 [Compound 112, 5-guanidino-N-[3-[[2-[[3-(5-guanidinopentanoylamino)-2-[(3R)-pyrrolidin-3-yl]oxy-5-(trifluoromethyl)phenyl]carbamoylamino]-1,3-benzothiazol-6-yl]carbamoylamino]-2-[(3R)-pyrrolidin-3-yl]oxy-5-(trifluoromethyl)phenyl]pentanamide] | 105 (≈ 103 µM) | 52.5 (≈ 51.4 µM) | 0.098 (≈ 0.0959 µM) | 1.56 (≈ 1.53 µM) | 1.56 (≈ 1.53 µM) | 25 (≈ 24.5 µM) | 3.13 (≈ 3.06 µM) |  |  |  |  |  | 
4 | NCCCc1cc(NC(=O)Nc2cc(C(F)(F)F)c(SCCN)cc2SCCN)ccc1Oc1ccc(NCCN)c(C(F)(F)F)c1 [Compound 113, 1-[4-[4-(2-aminoethylamino)-3-(trifluoromethyl)phenoxy]-3-(3-aminopropyl)phenyl]-3-[2,4-bis(2-aminoethylsulfanyl)-5-(trifluoromethyl)phenyl]urea] | 191 (≈ 271 µM) | 142 (≈ 201 µM) | 1.56 (≈ 2.21 µM) | 0.78 (≈ 1.11 µM) | 3.13 (≈ 4.43 µM) | 3.13 (≈ 4.43 µM) | 3.13 (≈ 4.43 µM) | 32 |  |  |  |  | 
5 | NCCCc1cc(NC(=O)Nc2ccc(SCCN)c(C(F)(F)F)c2)ccc1Oc1ccc(NCCN)c(C(F)(F)F)c1 [Compound 114, 1-[4-[4-(2-aminoethylamino)-3-(trifluoromethyl)phenoxy]-3-(3-aminopropyl)phenyl]-3-[4-(2-aminoethylsulfanyl)-3-(trifluoromethyl)phenyl]urea] | 238 (≈ 377 µM) | 160 (≈ 254 µM) | 1.56 (≈ 2.47 µM) | 1.56 (≈ 2.47 µM) | 6.25 (≈ 9.91 µM) | 3.13 (≈ 4.96 µM) | 12.5 (≈ 19.8 µM) |  |  |  |  |  | 
6 | NCC#Cc1cc(-n2ccc3cc([N+](=O)[O-])ccc32)cc(C(F)(F)F)c1 [Compound 115] | 74.3 (≈ 207 µM) | 43.3 (≈ 121 µM) |  |  |  |  |  |  | 6.25 (≈ 17.4 µM) | 25 (≈ 69.6 µM) | 25 (≈ 69.6 µM) | 7.5 (≈ 20.9 µM) | 25 (≈ 69.6 µM)
